{"source": "patent US20230241185A1", "about": "“COMPOSITION COMPRISING A DNA-DEGRADING ENZYME FOR USE IN A METHOD FOR THE TREATMENT OF IMMUNOSUPPRESSION AFTER ACUTE TISSUE INJURY” (Klinikum der Universität München, priority 2020, published 2023)", "assay_type_in_all_cases": "in vivo, mice", "key": {"K. pneumoniae": {"tested_on": "K. pneumoniae", "test": "Post-stroke intranasal bacterial infection, CFU burden in lung", "conditions": "VX765 vs control; 2×10^5 CFU K. pneumoniae intranasally 12 h after stroke; CFU 14 h later"}, "[1]": {"test": "Infarct volumetry after stroke", "conditions": "VX-765 vs control treatment; 18 h after stroke", "from_the_text": "(§1) Mice were anaesthetized with isoflurane delivered in a mixture of 30% O2 and 70% N2O. An incision was made between the ear and the eye in order to expose the temporal bone. Mice were placed in supine position, and a laser Doppler probe was affixed to the skull above the middle cerebral artery (MCA) territory. The common carotid artery and left external carotid artery were exposed via midline incision and further isolated and ligated. […] Lack of brain ischemia as quantified post-mortem by histological analysis. […]\nMice were euthanized by overdose of ketamine-xylazine and perfused intracardially with normal saline. […] Infarct area of each section was assessed by ImageJ software (NIH). […] The total infarct volume was determined by integrating measured areas and distances between sections."}, "CD45^+ splenocytes [2]": {"tested_on": "CD45^+ splenocytes", "test": "CD45+ splenocyte counts by FACS after burn injury", "conditions": "VX-765 100 mg kg^−1 i.p. 1 h prior to burn injury vs vehicle; normalized to sham", "description": "(§2) Male C57Bl/6J mice (Charles River, Freiburg, Germany), aged 7-8 weeks, received a 35% total body surface area (TBSA) full thickness scald burn to the back through 10 seconds immersion in 98° C. water under deep anesthesia with 2% isoflurane and analgesia with 0.1 mg kg^−1 buprenorphine. Immediately after burn injury, the mice were resuscitated with 2 ml of lactated Ringer's solution (Baxter, Unterschleißheim, Germany) via i.p. injection as previously described (Hundeshagen et al., 2018; Bohannon et al., 2008; Toliver-Kinsky et al., 2005). Animals in the sham burn group were subjected to identical treatment except for water temperature during immersion being 36 C. Following burn injury or sham burn, mice were singly housed at room temperature (21° C.). […]\n(§3) The anti-mouse antibodies listed below (see Table 1) were used for surface marker staining of CD45^+ leukocytes, CD45^+CD11b^+ monocytes (+FasL^+ expression), CD3^+ T cells, CD3^+CD4^+ Thelper cells, CD3^+CD8^+ Tcytotox cells and CD19^+ B cells (for representative gating strategy, see FIG. 10A). […] Flow cytometric data was acquired using a BD FACSverse flow cytometer (BD Biosciences) and analyzed using FlowJo software (Treestar)."}, "CD45^+ splenocytes [3]": {"tested_on": "CD45^+ splenocytes", "test": "CD45+ splenocyte counts (spleen cellularity) by FACS after experimental stroke", "conditions": "VX-765 100 mg kg^−1 i.p. 1 h prior to stroke vs vehicle; normalized to sham", "from_the_text": "as §1, §3"}, "splenic CD3^+ T cells [4]": {"tested_on": "splenic CD3^+ T cells", "test": "Splenic T cell counts by FACS after experimental stroke", "conditions": "VX-765 100 mg kg^−1 i.p. 1 h prior to stroke vs vehicle; normalized to sham", "from_the_text": "Mice were anaesthetized with isoflurane delivered in a mixture of 30% O2 and 70% N2O. An incision was made between the ear and the eye in order to expose the temporal bone. Mice were placed in supine position, and a laser Doppler probe was affixed to the skull above the middle cerebral artery (MCA) territory. The common carotid artery and left external carotid artery were exposed via midline incision and further isolated and ligated. A 2-mm silicon-coated filament (Doccol) was inserted into the internal carotid artery, advanced gently to the MCA until resistance was felt, and occlusion was confirmed by a corresponding decrease in blood flow (i.e., a decrease in the laser Doppler flow signal by 80%. After 60 minutes of occlusion, the animals were re-anesthetized, and the filament was removed. After recovery, the mice were kept in their home cage with ad libitum access to water and food. Sham-operated mice received the same surgical procedure, but the filament was […] in lieu of being advanced to the MCA. Body temperature was maintained at 37° C. throughout surgery in all mice via feedback-controlled heating pad. The overall mortality rate of animals subjected to MCA occlusion was approximately 20%. All animals in the sham group survived the procedure. Exclusion criteria: 1. Insufficient MCA occlusion (a reduction in blood flow to […] of the baseline value). 2. Death during the surgery. 3. Lack of brain ischemia as quantified post-mortem by histological analysis.\nAnti-IL1β: Mice received two injections of antagonizing anti-IL-1β in sterile saline (clone: B122, InVivoMab, BioXcell, US), 1 hour prior to and 1 hour after surgery. Anti-IL-1β or the corresponding IgG control (Armenian hamster IgG, InVivoMab, BioXcell, US) was injected i.p. at a dose of 4 mg kg^−1 body weight in a final volume of 200 μl.\nAnti-FasL: Mice received two injections of antagonizing anti-FasL in sterile saline (clone: MFL3, InVivoMab, BioXcell, US), 1 hour prior to and 1 hour after surgery. […]"}, "S. pneumoniae": {"tested_on": "S. pneumoniae", "test": "Post-stroke intranasal bacterial infection, CFU burden in trachea", "conditions": "VX765 vs control; 10^6 CFU S. pneumoniae intranasally 12 h after stroke; CFU 14 h later", "from_the_text": "as §1\nS. pneumoniae TIGR4, an encapsulated strain of serotype 4, was grown overnight on Columbia blood agar plates (37° C., 5% CO2), single colonies were cultured in Todd-Hewitt broth with 1% yeast extract to mid-logarithmic phase (OD600 nm: 0.35), washed, and diluted in sterile PBS to the desired concentration. […] Serial dilutions of lung and tracheal tissue homogenates were plated onto blood agar plates and CFU were determined after 16 h of incubation."}, "splenic CD3^+ T cells [5]": {"tested_on": "splenic CD3^+ T cells", "test": "Splenic T cell counts by FACS after burn injury", "conditions": "VX-765 100 mg kg^−1 i.p. 1 h prior to burn injury vs vehicle; normalized to sham", "description": "as §2, §3"}}, "note": "Entries after “also recorded” stand apart in the source; their conditions may differ.", "data": [{"compound": "CCO[C@@H]1OC(=O)C[C@@H]1NC(=O)[C@@H]1CCCN1C(=O)[C@@H](NC(=O)c1ccc(N)c(Cl)c1)C(C)(C)C", "note": "[VX-765, Belnacasan]", "values": [{"measurement": "bacterial load (CFU) in lung", "setting": "K. pneumoniae", "result": "reduced post-injury bacterial load comparable to sham-operated group"}, {"measurement": "infarct volume (primary lesion size)", "setting": "[1]", "result": "neither genetic nor pharmacological caspase-1 deficiency had a significant effect on the primary lesion size; also recorded: No significant difference in infarct volume between groups"}, {"measurement": "overall CD45+ splenocyte counts (spleen cellularity)", "setting": "CD45^+ splenocytes [2]", "result": "improved T cell survival and spleen cellularity; also recorded: improved survival after VX-765 treatment compared to control"}, {"measurement": "overall CD45+ splenocyte counts (spleen cellularity)", "setting": "CD45^+ splenocytes [3]", "result": "improved T cell survival and spleen cellularity; also recorded: improved survival after VX-765 treatment compared to control"}, {"measurement": "splenic CD3+ T cell counts (survival)", "setting": "splenic CD3^+ T cells [4]", "result": "improved T cell survival; also recorded: improved survival after VX-765 treatment compared to control"}, {"measurement": "bacterial load (CFU) in trachea", "setting": "S. pneumoniae", "result": "reduced post-injury bacterial load comparable to sham-operated group"}, {"measurement": "splenic CD3+ T cell counts (survival)", "setting": "splenic CD3^+ T cells [5]", "result": "improved T cell survival; also recorded: improved survival after VX-765 treatment compared to control"}]}]}
